ChEMBL document CHEMBL1201862, “PubChem BioAssay data set” (2004)
Activity calls are given as the source filed them.

Legend:
[1] = NIH-3T3 fibroblast cytotoxicity, dose response, cytotoxicity control, cell-based, fluorescence, Alamar Blue, secondary assay (AID 2327); assay type: functional;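 also: NIH-3T3 mouse fibroblasts cultured with fluconazole at 8 µg/mL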
[2] = A High Throughput Confirmatory Assay used to Identify Novel Compounds that Inhibit Mycobacterium Tuberculosis in the absence of Glycerol.; assay type: functional
[3] = target: T1, Rac GTPase-activating protein 1 (Homo sapiens, UniProt Q9H0H5); test: MgcRacGAP GTPase-activating activity inhibitors, confirmation, biochemical, ADP Hunter fluorescence, primary and confirmatory (AID 624330); assay type: functional
T1 sequence (Q9H0H5 whole entry): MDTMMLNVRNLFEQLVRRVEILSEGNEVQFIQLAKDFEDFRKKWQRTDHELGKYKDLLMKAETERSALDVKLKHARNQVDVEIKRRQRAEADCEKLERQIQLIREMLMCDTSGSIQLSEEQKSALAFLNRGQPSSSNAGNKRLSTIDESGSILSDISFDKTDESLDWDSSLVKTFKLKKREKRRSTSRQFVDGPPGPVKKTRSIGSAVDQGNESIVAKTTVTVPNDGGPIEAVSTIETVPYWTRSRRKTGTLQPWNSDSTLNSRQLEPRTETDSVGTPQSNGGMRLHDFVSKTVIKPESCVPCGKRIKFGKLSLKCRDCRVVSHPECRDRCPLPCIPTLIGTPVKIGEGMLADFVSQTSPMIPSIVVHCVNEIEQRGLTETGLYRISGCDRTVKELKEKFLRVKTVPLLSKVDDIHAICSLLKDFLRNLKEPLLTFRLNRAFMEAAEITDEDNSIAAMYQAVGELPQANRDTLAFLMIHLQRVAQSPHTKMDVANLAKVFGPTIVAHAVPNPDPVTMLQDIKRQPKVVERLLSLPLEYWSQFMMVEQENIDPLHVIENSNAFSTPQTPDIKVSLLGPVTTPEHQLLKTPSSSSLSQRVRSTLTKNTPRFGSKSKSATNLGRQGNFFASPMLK

[4] = C. albicans growth with fluconazole, confirmation, fluorescence, retest (AID 2467); assay type: functional, cell-based
[5] = target: Heat shock protein HSP 90-alpha (Homo sapiens, UniProt P07900); assay type: functional, organism-based
[6] = target: T2, Microphthalmia-associated transcription factor (Homo sapiens, UniProt O75030); test: TRPM1 promoter luciferase signal decrease, dose response, MITF inhibitor project, cell-based, SK-MEL-5, cherry-picked, set 3 (AID 493073); assay type: functional
T2 sequence (O75030 whole entry): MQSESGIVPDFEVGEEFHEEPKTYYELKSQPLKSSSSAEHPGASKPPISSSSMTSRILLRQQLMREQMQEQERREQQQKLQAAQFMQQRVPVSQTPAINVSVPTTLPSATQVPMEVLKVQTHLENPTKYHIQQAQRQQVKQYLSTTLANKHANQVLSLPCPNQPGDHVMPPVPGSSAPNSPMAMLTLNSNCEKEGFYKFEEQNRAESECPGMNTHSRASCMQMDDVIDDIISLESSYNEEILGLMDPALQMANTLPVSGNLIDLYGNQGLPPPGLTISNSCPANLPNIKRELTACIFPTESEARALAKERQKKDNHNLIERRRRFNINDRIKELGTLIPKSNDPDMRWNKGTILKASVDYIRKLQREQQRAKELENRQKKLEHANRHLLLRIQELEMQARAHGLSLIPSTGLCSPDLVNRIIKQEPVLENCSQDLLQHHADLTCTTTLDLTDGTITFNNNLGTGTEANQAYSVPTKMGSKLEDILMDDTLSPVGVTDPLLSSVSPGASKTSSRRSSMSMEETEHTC

[7] = target: T3, Apoptotic protease-activating factor 1 (Homo sapiens, UniProt O14727); assay type: functional
T3 sequence (O14727 whole entry): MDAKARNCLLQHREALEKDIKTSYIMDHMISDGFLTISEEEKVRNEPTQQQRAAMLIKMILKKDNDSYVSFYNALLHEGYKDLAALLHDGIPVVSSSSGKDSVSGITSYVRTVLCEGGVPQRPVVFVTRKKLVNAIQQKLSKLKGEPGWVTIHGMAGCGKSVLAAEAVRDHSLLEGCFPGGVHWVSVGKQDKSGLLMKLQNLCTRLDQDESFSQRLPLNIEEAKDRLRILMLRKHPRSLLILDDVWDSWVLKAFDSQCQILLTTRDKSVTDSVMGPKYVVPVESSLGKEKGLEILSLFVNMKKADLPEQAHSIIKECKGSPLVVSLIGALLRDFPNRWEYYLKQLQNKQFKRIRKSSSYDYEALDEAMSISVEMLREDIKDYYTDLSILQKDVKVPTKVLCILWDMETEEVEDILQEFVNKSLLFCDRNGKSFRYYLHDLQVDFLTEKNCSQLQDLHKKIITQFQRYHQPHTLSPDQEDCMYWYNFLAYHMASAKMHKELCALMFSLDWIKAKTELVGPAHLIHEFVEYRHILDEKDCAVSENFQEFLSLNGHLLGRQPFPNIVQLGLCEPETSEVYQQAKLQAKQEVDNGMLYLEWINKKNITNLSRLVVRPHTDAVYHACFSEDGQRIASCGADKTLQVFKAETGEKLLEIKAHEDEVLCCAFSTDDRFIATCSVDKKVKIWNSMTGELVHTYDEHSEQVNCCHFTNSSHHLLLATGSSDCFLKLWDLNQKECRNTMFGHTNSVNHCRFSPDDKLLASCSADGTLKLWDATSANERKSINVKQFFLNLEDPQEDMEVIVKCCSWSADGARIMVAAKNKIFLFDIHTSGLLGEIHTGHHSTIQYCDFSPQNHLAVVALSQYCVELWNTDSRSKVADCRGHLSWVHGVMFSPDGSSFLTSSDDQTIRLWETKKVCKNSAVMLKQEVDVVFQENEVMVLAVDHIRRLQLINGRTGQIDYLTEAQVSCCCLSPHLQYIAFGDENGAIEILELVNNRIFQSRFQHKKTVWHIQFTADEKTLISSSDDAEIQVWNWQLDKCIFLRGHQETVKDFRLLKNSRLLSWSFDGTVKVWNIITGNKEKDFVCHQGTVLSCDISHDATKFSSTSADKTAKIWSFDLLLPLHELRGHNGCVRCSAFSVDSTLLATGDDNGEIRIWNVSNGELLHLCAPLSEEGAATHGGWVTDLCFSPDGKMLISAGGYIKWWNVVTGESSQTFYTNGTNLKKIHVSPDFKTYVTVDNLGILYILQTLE

[8] = Luminescence Cell-Based Dose Response HTS to Identify Inhibitors of 5'UTR Stem-Loop Driven Prion Protein mRNA Translation in H4 Neuroglioblastoma Cells. [Related pubchem assays: 1827 (Project Summary), 1813 (Primary HTS)]; assay type: functional
HEK293 = test: inhibitors of LMP1-driven NF-kB reporter, dose response, cell-based, HEK293, luciferase, cherry-pick (AID 588343); assay type: functional; conditions: Homo sapiens
[9] = inhibitors of SNCA 5'UTR-driven reporter translation, confirmation, H4 neuroglioma cells, luminescence (AID 1988); assay type: functional, cell-based
[10] = HepG2 cell cytotoxicity, dose response, cytotoxicity control for Shn3 inhibitor project, CellTiter-Glo, cherry-picked (AID 624134); assay type: functional, cell-based
[11] = Luminescence Cell-Based Dose Retest to Confirm Inhibitors of Cancer Stem Cells. [Related pubchem assays (depositor defined):AID2717, AID2721]; assay type: functional; conditions: Homo sapiens
[12] = Shn3 3'UTR reporter inhibitors, dose response, cell-based, Clone20 osteoblasts, firefly luciferase, cherry-picked (AID 624132); assay type: functional;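 also: firefly luciferase luminescence from reporter carrying the Shn3 3'UTR in osteoblasts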
[13] = control 3'UTR Renilla luciferase suppression, dose response, counter-screen for Shn3 inhibitor project, cell-based, Clone20-Shn3RL, cherry-picked (AID 624133); assay type: functional
Genome polyprotein = Genome polyprotein (dengue virus type 2, UniProt P29990); test: Dengue-2 NS5 methyltransferase inhibitors, primary screen, biochemical, confirmation dose response (AID 588689); assay type: functional
Caspase-6 = target: T4, Caspase-6 (Homo sapiens, UniProt P55212); test: human caspase-6 inhibitors, dose response, biochemical, VEID-R110 fluorescence, cherry-pick (AID 720632)
T4 sequence (P55212 whole entry): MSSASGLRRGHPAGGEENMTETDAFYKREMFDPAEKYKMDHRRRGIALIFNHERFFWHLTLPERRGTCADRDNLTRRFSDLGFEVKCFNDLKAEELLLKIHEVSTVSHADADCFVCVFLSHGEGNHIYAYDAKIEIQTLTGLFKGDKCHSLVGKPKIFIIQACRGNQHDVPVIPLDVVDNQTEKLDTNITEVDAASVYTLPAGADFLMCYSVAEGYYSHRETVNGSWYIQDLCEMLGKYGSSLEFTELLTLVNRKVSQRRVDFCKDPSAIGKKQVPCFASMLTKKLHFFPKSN

[14] = target: Glucose-6-phosphate 1-dehydrogenase (Homo sapiens, UniProt P11413); test: human G6PD enzyme inhibitors, dose response, selectivity assay for P. falciparum G6PD inhibitor project, biochemical, fluorescence (AID 504792); assay type: functional
Sequence of Glucose-6-phosphate 1-dehydrogenase (P11413 whole entry): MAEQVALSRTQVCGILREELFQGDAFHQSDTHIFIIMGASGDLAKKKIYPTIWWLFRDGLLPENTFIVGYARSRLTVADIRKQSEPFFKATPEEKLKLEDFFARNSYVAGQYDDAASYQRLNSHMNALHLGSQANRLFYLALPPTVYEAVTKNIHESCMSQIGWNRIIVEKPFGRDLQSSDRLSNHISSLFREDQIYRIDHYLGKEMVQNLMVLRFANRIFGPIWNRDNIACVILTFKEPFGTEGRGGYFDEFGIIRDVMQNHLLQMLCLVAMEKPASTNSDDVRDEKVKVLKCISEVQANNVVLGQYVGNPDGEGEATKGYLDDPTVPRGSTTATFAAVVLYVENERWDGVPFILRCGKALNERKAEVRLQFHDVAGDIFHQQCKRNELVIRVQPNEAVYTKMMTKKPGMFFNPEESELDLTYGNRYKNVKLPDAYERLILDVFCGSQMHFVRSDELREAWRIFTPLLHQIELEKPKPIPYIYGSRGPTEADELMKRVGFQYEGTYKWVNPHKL

Sequence of Genome polyprotein (P29990 2492-3391 limits assumed): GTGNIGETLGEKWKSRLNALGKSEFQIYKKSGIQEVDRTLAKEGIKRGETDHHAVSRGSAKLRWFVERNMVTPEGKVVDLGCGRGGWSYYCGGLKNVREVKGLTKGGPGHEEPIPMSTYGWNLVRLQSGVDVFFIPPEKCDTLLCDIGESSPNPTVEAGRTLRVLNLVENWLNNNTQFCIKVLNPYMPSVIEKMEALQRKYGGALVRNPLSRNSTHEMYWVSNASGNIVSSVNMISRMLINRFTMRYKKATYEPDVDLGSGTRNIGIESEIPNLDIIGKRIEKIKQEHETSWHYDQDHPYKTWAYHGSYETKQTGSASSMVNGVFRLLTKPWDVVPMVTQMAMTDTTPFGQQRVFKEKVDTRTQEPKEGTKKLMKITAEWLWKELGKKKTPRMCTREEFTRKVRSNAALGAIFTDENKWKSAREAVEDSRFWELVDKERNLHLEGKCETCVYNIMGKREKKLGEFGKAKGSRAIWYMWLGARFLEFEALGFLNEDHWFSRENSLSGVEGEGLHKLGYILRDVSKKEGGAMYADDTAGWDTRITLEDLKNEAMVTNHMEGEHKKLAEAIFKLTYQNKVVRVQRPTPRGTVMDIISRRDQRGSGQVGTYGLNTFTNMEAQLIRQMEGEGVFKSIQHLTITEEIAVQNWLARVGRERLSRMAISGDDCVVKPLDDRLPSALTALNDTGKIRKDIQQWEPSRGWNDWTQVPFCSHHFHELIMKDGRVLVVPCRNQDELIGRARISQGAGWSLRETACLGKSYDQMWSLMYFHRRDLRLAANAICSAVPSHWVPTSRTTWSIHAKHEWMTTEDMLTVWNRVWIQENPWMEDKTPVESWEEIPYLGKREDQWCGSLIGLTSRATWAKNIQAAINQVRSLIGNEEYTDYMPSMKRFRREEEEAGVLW

## O=C1NN(c2ccc(Br)cc2)C(=O)/C1=C\c1ccc(O)cc1O
[1]
  EC50: > 150 µM (inconclusive)
[2]
  IC50: > 100 µM (active)
[3]
  IC50: 159 µM (active)
[4]
  EC50: > 38 µM (not active)

## CCc1ccc(OCC(=O)NNC(=S)NC(=O)C2CC2)c(Br)c1
[5]
  AC50: 0.978 µM (active)
[1]
  EC50: > 150 µM (inactive)
[4]
  EC50: 1.61 µM (active)

## Cc1ccc(S(=O)(=O)[N-]C2=C(n3cc[n+](CCC(C)C)c3)C(=O)c3ccccc3C2=O)cc1
[6]
  AC50: 4.11 µM (active)
[7]
  IC50: 12.2 µM (active)

## Nc1cc([N+](=O)[O-])cc2oc(-c3ccccc3)cc12
[2]
  IC50: > 100 µM (active)

## O=C1NC(=O)/C(=C\c2ccc(OCc3cccc(C(=O)O)c3)c(Cl)c2)N1
[8]
  EC50: 10.6 µM (active)
HEK293
  AC50: 6.47 µM (active)
[9]
  EC50: 9.49 µM (inconclusive)

## CCCSc1nnc(CSc2nc3ccccc3s2)n1-c1ccccc1
[10]
  AC50: > 70 µM (inactive)
[11]
  AC50: 2.8 µM (active)
[12]
  AC50: 7.05 µM (active)
[13]
  AC50: 22.7 µM (active)

## COc1cc(/C=C2/SC(=S)N(CC(=O)O)C2=O)ccc1OC(=O)c1cccs1
Genome polyprotein
  IC50: 88.3 µM (active)

## O=C(O)c1ccccc1NS(=O)(=O)c1ccc(NN=Cc2ccccc2F)c([N+](=O)[O-])c1
Caspase-6
  AC50: 19 µM (active)

## Cc1ccccc1C(=O)N1CCN(c2ccc(NC(=O)c3cccs3)cc2)CC1
HEK293
  AC50: 0.788 µM (active)

## CCOC(=O)c1c(C)n(-c2ccc(C)cc2)c2c(C(C(C)=O)C(=O)O)c(Br)c(O)c(O)c12 (stereo not drawn)
[7]
  IC50: 12.3 µM (active)
[14]
  IC50: 26.5 µM (inactive)

## Cc1ccc(S(=O)(=O)Oc2ccccc2C=C2C(=O)N(C)C(=O)N(C)C2=O)cc1
Genome polyprotein
  IC50: 37.8 µM (active)
